Measured values reported in patent publication US20210355104A1, “ADENOSINE RECEPTOR BINDING COMPOUNDS” (Nikang Therapeuticsm Inc., priority 2018, published 2021).
Several values for one entry are separate records, joined by “and”; a condition that tells them apart may be missing. Equal values may be shown once.

How the values were obtained:
Adenosine A2A receptor [1] = molecular target: T1, Adenosine A2A receptor (Homo sapiens, UniProt P29274); assay: Adenosine A2A receptor competitive binding assay (Tag-lite HTRF); settings: Tag-lite adenosine A2A receptor ligand binding
Outline: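 Compound displacement of a red fluorescent antagonist tracer (added at 60 nM stock) from donor-labelled, pre-transfected human A2A cells was read by HTRF after 2 h at room temperature; compound dilutions contained 0.6% DMSO.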

[2] = system: p-CREB (phosphorylated cAMP response-element binding protein) in human whole blood; assay: p-CREB assay in human whole blood by flow cytometry (NECA stimulation, CD4 staining); assay type: cell-based; settings: Homo sapiens
Outline: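 Fresh human whole blood preincubated 1 h at room temperature with compounds (11-point 1:3 series from 30 uM) plus adenosine deaminase, then stimulated 30 min with NECA and Rolipram (10× additions of 50 uM stocks). Cells lysed/fixed, permeabilised, stained for p-CREB and CD4, read by flow cytometry.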

Adenosine A2A receptor [3] = molecular target: T1, Adenosine A2A receptor; assay: cAMP assay in 293A cells stably expressing the adenosine A2A receptor (CGS21680 stimulation, HTRF); assay type: cell-based; parameters: expressed in transfected cells; host or cells: 293A cells (Invitrogen, Cat# R705-07) infected with A2A-expressing lentivirus (custom packaged by Biosettia), puromycin selected; settings: 0.1% BSA
[4] = 2 h room temperature, values separated by / are repeat determinations
[5] = values separated by / are repeat determinations
[6] = 293A-A2AR cells, 8 nM CGS, values separated by / are repeat determinations, read-out: cAMP (nM) 0.1% BSA, 8 nM CGS
[7] = 293A-A2AR cells, 1 uM CGS, values separated by / are repeat determinations, read-out: cAMP (nM) 0.1% BSA, 1 uM CGS
[8] = replicate values separated by /
[9] = 293A cells stably expressing A2A receptor, 1 uM CGS21680 stimulation, replicate values separated by /, read-out: cAMP (nM) 0.1% BSA, 1 uM CGS

T1 sequence (P29274 whole entry): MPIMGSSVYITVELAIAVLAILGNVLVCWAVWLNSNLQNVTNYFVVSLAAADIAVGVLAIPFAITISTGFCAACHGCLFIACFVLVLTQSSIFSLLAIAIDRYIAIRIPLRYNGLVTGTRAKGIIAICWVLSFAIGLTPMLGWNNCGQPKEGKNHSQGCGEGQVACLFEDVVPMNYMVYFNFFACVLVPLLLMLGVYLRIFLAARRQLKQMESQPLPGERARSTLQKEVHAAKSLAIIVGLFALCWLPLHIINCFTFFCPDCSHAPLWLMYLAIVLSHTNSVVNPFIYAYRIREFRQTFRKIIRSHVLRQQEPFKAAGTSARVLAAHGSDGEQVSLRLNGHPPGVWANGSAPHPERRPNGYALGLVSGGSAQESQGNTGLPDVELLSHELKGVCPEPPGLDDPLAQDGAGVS

IC50 (Adenosine A2A receptor [1]; [4]) | IC50 [2, 5] [nM] | IC50 [2, 8] [nM] | IC50 (Adenosine A2A receptor [3]; [9]) | SMILES | further results
0.24 nM | 14 |  |  | Cc1cc(-c2c(OCc3ccccn3)nc(N)nc2-c2ccc(F)cc2)cc(C(F)F)n1 [Example 95, 5-(2-(difluoromethyl)-6-methylpyridin-4-yl)-4-(4-fluorophenyl)-6-(pyridin-2-ylmethoxy)pyrimidin-2-amine] | IC50 (Adenosine A2A receptor [3]; [7]): 12 nM
 |  | 232 | 282 nM | Cc1cc(-c2c(OCc3cccc(CNCC(=O)N(C)C)n3)nc(N)nc2-c2ccc(F)cc2)cc(C(F)F)n1 [Example 437, 2-(((6-(((2-amino-5-(2-(difluoromethyl)-6-methylpyridin-4-yl)-6-(4-fluorophenyl)pyrimidin-4-yl)oxy)methyl)pyridin-2-yl)methyl)amino)-N,N-dimethylacetamide] | 
 |  | 252 | 103 nM | Cc1cc(-c2c(OCc3cccc(C4(CCO)CCOC4=O)n3)nc(N)nc2-c2ccc(F)cc2)cc(C(F)F)n1 (stereo not drawn) [Example 439, 3-(6-(((2-amino-5-(2-(difluoromethyl)-6-methylpyridin-4-yl)-6-(4-fluorophenyl)pyrimidin-4-yl)oxy)methyl)pyridin-2-yl)-3-(2-hydroxyethyl)dihydrofuran-2(3H)-one] | 
 |  | 95 | 215 nM | CNC(=O)CNCc1cccc(COc2nc(N)nc(-c3ccc(F)cc3)c2-c2cc(C)nc(C(F)F)c2)n1 [Example 440, 2-(((6-(((2-amino-5-(2-(difluoromethyl)-6-methylpyridin-4-yl)-6-(4-fluorophenyl)pyrimidin-4-yl)oxy)methyl)pyridin-2-yl)methyl)amino)-N-methylacetamide] | 
 |  | 208 | 177 nM | Cc1cc(-c2c(OCc3cccc(NC(CO)CO)n3)nc(N)nc2-c2ccc(F)cc2)cc(C(F)F)n1 [Example 442, 2-((6-(((2-amino-5-(2-(difluoromethyl)-6-methylpyridin-4-yl)-6-(4-fluorophenyl)pyrimidin-4-yl)oxy)methyl)pyridin-2-yl)amino)propane-1,3-diol] | 

Second part, the molecule before the results:

SMILES | IC50 (Adenosine A2A receptor [1]; [4]) | IC50 [2, 5] [nM] | IC50 [2, 8] [nM] | IC50 (Adenosine A2A receptor [3]; [9]) | further results
Cc1cc(-c2c(OCC3CCOCC3)nc(N)nc2-c2ccc(F)cc2)cc(C(F)F)n1 [Example 55, 5-(2-(difluoromethyl)-6-methylpyridin-4-yl)-4-(4-fluorophenyl)-6-((tetrahydro-2H-pyran-4-yl)methoxy)pyrimidin-2-amine] | 0.7 nM and 5.4 nM | 93 |  |  | IC50 (Adenosine A2A receptor [3]; [6]): 0.54 nM and 0.49 nM; IC50 (Adenosine A2A receptor [3]; [7]): 96 nM
Cc1cc(-c2c(OCCN(C)c3ccccn3)nc(N)nc2-c2ccc(F)cc2)cc(C(F)F)n1 [Example 79, 5-(2-(difluoromethyl)-6-methylpyridin-4-yl)-4-(4-fluorophenyl)-6-(2-(methyl(pyridin-2-yl)amino)ethoxy)pyrimidin-2-amine] | 0.51 nM | 11.2 |  |  | IC50 (Adenosine A2A receptor [3]; [7]): 1 nM
COCC(O)COc1nc(N)nc(-c2ccc(F)cc2)c1-c1cc(C)nc(C(F)F)c1 (stereo not drawn) [Example 85, 1-((2-amino-5-(2-(difluoromethyl)-6-methylpyridin-4-yl)-6-(4-fluorophenyl)pyrimidin-4-yl)oxy)-3-methoxypropan-2-ol] | 4.2 nM | 469 |  |  | 
Cc1cc(-c2c(OCCNS(N)(=O)=O)nc(N)nc2-c2ccc(F)cc2)cc(C(F)(F)F)n1 [Example 111] | 4.1 nM | 1780 |  |  | IC50 (Adenosine A2A receptor [3]; [6]): 2.2 nM and 1.1 nM
Cc1cc(-c2c(OCc3nccn3CCCC(=O)O)nc(N)nc2-c2ccc(F)cc2)cc(C(F)F)n1 [Example 219, 4-(2-(((2-amino-5-(2-(difluoromethyl)-6-methylpyridin-4-yl)-6-(4-fluorophenyl)pyrimidin-4-yl)oxy)methyl)-1H-imidazol-1-yl)butanoic acid] |  |  |  |  | IC50 (Adenosine A2A receptor [1]; HTRF): 9 nM; IC50 [2]: 170 nM
Cc1cc(-c2c(OCc3ccnc(OC(CO)CO)n3)nc(N)nc2-c2ccc(F)cc2)cc(C(F)F)n1 [Example 434, 2-((4-(((2-amino-5-(2-(difluoromethyl)-6-methylpyridin-4-yl)-6-(4-fluorophenyl)pyrimidin-4-yl)oxy)methyl)pyrimidin-2-yl)oxy)propane-1,3-diol] |  |  | 411 | 346 nM and 290 nM | 
